Data taken from patent US11760762B2, “Thienopyranones and furanopyranones as kinase, bromodomain, and checkpoint inhibitors” (SignalRx Pharmaceuticals, Inc., priority 2017, dated 2023).
Structures can show the parent of a compound that is named as a salt. Where two headings read alike, the source gives them in different places.

Legend:
CDK4 = target: T1, CDK4 (Homo sapiens, UniProt P11802); assay: Cyclin dependent kinase inhibition (Reaction Biology Corp.); assay type: biochemical; conditions: 10-point curve, grouped by potency
T1 construct: Reaction Biology Corp., Malvern, PA (contract assay service)
T1 sequence (P11802 whole entry): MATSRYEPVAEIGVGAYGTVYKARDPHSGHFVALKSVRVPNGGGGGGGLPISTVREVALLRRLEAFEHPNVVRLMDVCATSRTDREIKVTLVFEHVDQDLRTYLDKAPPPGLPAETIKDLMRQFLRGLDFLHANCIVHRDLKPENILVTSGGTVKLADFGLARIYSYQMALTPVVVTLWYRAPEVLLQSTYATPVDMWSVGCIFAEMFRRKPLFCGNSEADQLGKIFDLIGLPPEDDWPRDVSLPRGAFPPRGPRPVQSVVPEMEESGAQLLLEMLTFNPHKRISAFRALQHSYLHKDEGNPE
T1 sequence (P24385 whole entry partner): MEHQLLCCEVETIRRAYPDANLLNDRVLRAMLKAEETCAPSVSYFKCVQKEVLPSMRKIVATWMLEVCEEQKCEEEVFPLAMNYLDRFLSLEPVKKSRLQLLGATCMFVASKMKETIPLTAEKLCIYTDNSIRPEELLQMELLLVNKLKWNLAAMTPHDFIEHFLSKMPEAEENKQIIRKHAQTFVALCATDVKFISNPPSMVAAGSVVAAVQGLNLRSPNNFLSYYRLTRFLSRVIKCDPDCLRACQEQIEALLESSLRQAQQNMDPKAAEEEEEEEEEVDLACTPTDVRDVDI
Experimental: (§1) PI3K-alpha, PI3K-beta, PI3K-gamma, and PI3K-delta inhibition activity was determined by Thermo Fisher Scientific-Biosciences Life Sciences Solutions, Madison, WI The bromodomain protein inhibition (binding domain 1 and 2 of BRD4) was determined by Reaction Biology Corp., Malvern, PA The cyclin dependent kinase inhibition on proteins such as CDK2, CDK4, CDK6, and CDK9 was determined by Reaction Biology Corp., Malvern, PA.
(§2) The compounds of the invention were characterized by their ability to inhibit the target proteins using third party vendors offering such services. PI3K-alpha, PI3K-gamma, and PI3K-delta inhibition activity was determined by Thermo Fisher Scientific-Biosciences Life Sciences Solutions, Madison, WI. […] NI=no inhibition detected up to 50 μM or IC50 not reached at 50 μM. ND=not done.

CDK6 = target: T2, CDK6 (Homo sapiens, UniProt Q00534); assay: as above; assay type: biochemical; conditions: 10-point curve, grouped by potency
T2 construct: Reaction Biology Corp., Malvern, PA (contract assay service)
T2 sequence (Q00534 whole entry): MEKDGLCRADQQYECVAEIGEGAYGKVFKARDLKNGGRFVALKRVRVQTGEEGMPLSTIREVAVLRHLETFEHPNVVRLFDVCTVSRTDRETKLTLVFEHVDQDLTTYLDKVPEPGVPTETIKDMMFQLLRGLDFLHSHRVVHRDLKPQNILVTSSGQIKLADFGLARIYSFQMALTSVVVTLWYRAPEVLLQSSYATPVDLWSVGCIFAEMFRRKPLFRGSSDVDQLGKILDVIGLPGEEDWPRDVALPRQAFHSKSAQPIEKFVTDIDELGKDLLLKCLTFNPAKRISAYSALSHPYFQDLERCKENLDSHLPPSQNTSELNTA
T2 sequence (P24385 whole entry partner): as the sequence (P24385 whole entry partner) above
Experimental: as §1, §2

PI3K-alpha = target: T3, PI3K-alpha (Homo sapiens, UniProt P42336); assay: PI3K inhibition (Thermo Fisher Scientific); assay type: biochemical; conditions: 10-point curve, grouped by potency; read-out: IC50 P13K α
T3 construct: Thermo Fisher Scientific-Biosciences Life Sciences Solutions, Madison, WI (contract assay service)
T3 sequence (P42336 whole entry): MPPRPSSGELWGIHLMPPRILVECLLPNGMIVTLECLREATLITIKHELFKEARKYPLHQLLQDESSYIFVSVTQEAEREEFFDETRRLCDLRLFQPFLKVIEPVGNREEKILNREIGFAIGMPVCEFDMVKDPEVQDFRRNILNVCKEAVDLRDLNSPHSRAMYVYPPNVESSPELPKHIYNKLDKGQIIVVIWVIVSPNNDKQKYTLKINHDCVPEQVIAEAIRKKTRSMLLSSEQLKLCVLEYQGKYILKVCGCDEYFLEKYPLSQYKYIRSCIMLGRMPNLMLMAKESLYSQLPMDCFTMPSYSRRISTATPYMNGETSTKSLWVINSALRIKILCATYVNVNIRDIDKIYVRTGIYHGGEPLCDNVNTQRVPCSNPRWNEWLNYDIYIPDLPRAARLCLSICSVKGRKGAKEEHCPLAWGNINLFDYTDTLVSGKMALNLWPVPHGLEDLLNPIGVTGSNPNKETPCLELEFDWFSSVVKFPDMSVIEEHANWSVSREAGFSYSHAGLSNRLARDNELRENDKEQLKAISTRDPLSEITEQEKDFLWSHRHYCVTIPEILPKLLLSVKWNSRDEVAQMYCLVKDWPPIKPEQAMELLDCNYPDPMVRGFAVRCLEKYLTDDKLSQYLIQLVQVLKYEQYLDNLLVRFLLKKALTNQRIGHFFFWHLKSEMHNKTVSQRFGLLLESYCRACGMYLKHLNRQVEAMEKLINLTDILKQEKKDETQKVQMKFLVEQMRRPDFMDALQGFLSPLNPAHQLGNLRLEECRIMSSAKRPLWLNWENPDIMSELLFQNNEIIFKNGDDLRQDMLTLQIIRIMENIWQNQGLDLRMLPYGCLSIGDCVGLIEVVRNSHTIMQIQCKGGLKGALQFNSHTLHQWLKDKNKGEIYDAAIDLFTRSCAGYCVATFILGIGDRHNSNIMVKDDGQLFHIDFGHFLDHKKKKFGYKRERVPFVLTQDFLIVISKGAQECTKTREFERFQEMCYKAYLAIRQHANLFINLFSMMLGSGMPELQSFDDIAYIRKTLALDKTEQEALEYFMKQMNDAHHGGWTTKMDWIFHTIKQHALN
T3 sequence (P27986 whole entry partner): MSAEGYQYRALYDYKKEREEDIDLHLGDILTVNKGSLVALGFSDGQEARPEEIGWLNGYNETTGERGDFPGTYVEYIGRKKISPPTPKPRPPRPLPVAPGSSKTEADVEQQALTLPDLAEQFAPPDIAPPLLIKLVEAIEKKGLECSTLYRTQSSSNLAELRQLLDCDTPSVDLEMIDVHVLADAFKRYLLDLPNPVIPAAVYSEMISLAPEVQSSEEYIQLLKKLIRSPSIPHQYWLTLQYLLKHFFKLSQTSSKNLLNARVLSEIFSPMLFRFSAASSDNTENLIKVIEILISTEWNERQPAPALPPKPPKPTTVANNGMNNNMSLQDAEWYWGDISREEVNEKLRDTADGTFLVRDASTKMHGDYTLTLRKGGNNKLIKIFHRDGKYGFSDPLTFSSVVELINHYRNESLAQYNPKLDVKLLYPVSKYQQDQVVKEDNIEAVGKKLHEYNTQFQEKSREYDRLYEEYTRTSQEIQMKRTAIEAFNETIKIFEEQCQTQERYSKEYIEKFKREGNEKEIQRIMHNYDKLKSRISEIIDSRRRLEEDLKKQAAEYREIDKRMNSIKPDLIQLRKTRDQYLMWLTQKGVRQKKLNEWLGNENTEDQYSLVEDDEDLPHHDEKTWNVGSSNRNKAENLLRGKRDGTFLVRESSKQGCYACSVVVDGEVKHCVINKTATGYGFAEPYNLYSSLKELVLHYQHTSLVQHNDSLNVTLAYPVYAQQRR

BRD4 binding domain 2 = target: T4, BRD4 binding domain 2 (Homo sapiens, UniProt O60885); assay: Bromodomain protein inhibition (Reaction Biology Corp.)
T4 construct: Reaction Biology Corp., Malvern, PA (contract assay service)
Experimental: as §1
(§3) The compounds of the invention were characterized by their ability to inhibit the target proteins using third party vendors offering such services. PI3K-alpha, PI3K-gamma, and PI3K-delta inhibition activity was determined by Thermo Fisher Scientific-Biosciences Life Sciences Solutions, Madison, WI. […] ND=not done.

BRD4 binding domain 1 = target: T5, BRD4 binding domain 1 (Homo sapiens, UniProt O60885); assay: as above
T5 construct: Reaction Biology Corp., Malvern, PA (contract assay service)
Experimental: as §1, §3

PI3K-delta = target: T6, PI3K-delta (Homo sapiens, UniProt O00329); assay: PI3K inhibition (Thermo Fisher Scientific); assay type: biochemical; conditions: 10-point curve, grouped by potency; read-out: IC50 P13K δ
T6 construct: Thermo Fisher Scientific-Biosciences Life Sciences Solutions, Madison, WI (contract assay service)
T6 sequence (O00329 whole entry): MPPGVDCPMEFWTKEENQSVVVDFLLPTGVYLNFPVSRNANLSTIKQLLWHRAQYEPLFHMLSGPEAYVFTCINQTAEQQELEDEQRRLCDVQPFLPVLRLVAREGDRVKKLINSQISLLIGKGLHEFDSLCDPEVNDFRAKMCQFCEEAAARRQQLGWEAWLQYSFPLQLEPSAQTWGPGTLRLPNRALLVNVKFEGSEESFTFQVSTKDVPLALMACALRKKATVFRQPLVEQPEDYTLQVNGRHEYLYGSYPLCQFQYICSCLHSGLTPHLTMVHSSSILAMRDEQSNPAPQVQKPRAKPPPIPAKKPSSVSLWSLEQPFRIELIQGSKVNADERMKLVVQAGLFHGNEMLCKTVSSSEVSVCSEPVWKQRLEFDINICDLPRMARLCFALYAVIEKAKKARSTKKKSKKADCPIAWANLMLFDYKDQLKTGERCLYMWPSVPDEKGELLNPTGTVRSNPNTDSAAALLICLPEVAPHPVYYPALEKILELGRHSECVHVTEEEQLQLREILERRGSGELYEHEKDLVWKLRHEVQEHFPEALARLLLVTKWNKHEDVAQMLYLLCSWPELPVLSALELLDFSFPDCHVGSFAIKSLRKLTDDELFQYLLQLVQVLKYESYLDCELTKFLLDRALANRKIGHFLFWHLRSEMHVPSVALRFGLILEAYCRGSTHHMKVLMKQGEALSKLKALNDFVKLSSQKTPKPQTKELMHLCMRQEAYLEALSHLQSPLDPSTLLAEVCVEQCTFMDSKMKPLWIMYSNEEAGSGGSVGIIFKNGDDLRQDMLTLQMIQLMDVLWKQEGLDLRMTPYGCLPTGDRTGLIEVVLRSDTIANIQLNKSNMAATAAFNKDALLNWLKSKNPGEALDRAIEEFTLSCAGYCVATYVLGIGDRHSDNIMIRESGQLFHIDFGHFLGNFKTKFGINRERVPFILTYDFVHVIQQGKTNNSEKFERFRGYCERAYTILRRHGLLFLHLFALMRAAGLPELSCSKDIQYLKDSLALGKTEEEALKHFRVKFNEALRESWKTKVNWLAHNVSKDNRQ
T6 sequence (P27986 whole entry partner): as the sequence (P27986 whole entry partner) above
Experimental: as §1, §2

PI3K-gamma = target: T7, PI3K-gamma (Homo sapiens, UniProt P48736); assay: PI3K inhibition (Thermo Fisher Scientific); assay type: biochemical; conditions: 10-point curve, grouped by potency; read-out: IC50 P13K γ
T7 construct: Thermo Fisher Scientific-Biosciences Life Sciences Solutions, Madison, WI (contract assay service)
T7 sequence (P48736 whole entry): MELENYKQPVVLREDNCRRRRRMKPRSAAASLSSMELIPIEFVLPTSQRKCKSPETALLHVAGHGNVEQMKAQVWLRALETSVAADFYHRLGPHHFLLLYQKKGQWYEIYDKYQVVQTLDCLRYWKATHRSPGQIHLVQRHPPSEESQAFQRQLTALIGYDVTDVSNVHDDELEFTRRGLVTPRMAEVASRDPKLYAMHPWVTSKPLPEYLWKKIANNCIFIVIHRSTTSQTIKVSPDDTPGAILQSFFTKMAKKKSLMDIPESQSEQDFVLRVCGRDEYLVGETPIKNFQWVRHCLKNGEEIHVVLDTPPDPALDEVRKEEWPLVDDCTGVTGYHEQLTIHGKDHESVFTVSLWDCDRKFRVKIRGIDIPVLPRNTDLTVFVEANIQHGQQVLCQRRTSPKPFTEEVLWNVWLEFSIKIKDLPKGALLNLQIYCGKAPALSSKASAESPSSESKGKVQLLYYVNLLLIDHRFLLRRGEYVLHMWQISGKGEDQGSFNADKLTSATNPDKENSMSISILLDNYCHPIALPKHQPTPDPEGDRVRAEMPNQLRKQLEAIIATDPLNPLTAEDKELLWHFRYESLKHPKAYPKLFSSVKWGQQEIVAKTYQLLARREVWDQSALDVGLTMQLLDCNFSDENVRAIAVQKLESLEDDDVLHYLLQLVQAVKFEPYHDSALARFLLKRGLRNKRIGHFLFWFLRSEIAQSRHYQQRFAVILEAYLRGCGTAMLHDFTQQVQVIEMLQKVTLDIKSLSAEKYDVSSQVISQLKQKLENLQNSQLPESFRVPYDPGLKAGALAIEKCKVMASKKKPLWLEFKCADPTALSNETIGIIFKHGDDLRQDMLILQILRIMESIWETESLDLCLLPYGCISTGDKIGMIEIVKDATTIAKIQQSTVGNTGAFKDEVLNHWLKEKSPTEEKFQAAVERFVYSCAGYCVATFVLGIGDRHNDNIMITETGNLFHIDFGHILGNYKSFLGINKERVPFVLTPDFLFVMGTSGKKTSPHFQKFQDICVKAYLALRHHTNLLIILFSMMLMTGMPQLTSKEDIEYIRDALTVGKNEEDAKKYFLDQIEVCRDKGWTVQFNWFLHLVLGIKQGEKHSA
Experimental: as §1, §2

Mino = assay: Mantle cell lymphoma cell viability, AlamarBlue; assay type: cell-based; conditions: Homo sapiens, MINO; 48 hours; read-out: Mantle Cell Line IC50 Values Mino
Experimental: (§4) Mantle cell lymphoma cell lines Granta, Mino and Jeko-1 were seeded at a density of 2500 cells/0.1 mL per well in a 96-well plate. Compounds 1 or Palbociclib were added post-plating at 50 μM-50 nM concentrations for 48 hours followed by addition of AlamarBlue® and incubation of plates at 37° C. in 5% CO2 for 6 hours. Fluorescence signals were read as emission at 590 nm after excitation at 560 nm. IC50 for each cell line was determined using Graphpad Prism software module.

Granta = assay: Mantle cell lymphoma cell viability, AlamarBlue; assay type: cell-based; conditions: 48 hours; read-out: Mantle Cell Line IC50 Values Granta
Experimental: as §4

Jeko-1 = assay: Mantle cell lymphoma cell viability, AlamarBlue; assay type: cell-based; conditions: Homo sapiens, JeKo-1; 48 hours; read-out: Mantle Cell Line IC50 Values Jeko-1
Experimental: as §4

Huh7 2H cell line = assay: Huh7 2H cell viability; assay type: cell-based; conditions: for IC50: Homo sapiens, Huh-7, 2 h
Experimental: (§5) Cells were seeded into 96-well plate at 1×10^4 cell per well in complete medium+10% FCS and incubated for 24 hours prior to the addition of compounds at concentrations ranging from 50 μM to 50 nM. Cell viability was quantitated 24 hours after the addition of compounds using AlamarBlue® viable cell detection reagent. IC50 curves were determined using Graphpad Prism software.
The procedures of example 6 were followed except using the Huh7 2H cell line.

Hep3B = assay: Hepatocellular carcinoma cell viability, AlamarBlue; assay type: cell-based; conditions: Homo sapiens, 24 hours, read-out: Hepatocarcinoma Cell Line IC50 Values Hep3B
Experimental: as §5

Huh7 = assay: as above; assay type: cell-based; conditions: Homo sapiens, Huh-7; 24 hours; read-out: Hepatocarcinoma Cell Line IC50 Values Huh7
Experimental: as §5

HepG2 = assay: as above; assay type: cell-based; conditions: Homo sapiens, 24 hours, read-out: Hepatocarcinoma Cell Line IC50 Values HepG2
Experimental: as §5

CDK4/Cyclin D1 = CDK4/Cyclin D1 (Homo sapiens, UniProt P11802); conditions: Divakar et al., Leukemia 2016; cited from earlier work
CDK6/Cyclin D1 = CDK6/Cyclin D1 (Homo sapiens, UniProt Q00534); conditions: Divakar et al., Leukemia 2016; cited from earlier work
CDK6/Cyclin D1, sequence (Q00534 whole entry, species assumed): as the sequence (Q00534 whole entry) above
CDK6/Cyclin D1, sequence (P24385 whole entry partner, species assumed): as the sequence (P24385 whole entry partner) above

PI3 kinases = conditions: C. J. Vlahos et al., J. Biol. Chem. 1994; cited from earlier work
[1] = 10-point curve, grouped by potency, read-out: IC50 BRD4-2
[2] = 10-point curve, grouped by potency, read-out: IC50 BRD4-1

| IC50 (CDK4) [nM] | IC50 (CDK6) [nM] | IC50 (PI3K-alpha) [nM] | IC50 (BRD4 binding domain 2; [1]) [nM] | IC50 (BRD4 binding domain 1; [2]) [nM] | IC50 (PI3K-delta) [nM] | IC50 (PI3K-gamma) [nM] | Structure (SMILES) | further results |
| --- | --- | --- | --- | --- | --- | --- | --- | --- |
| > 50000 | > 50000 | 100 to 1000 | 1000 to 5000 | 100 to 1000 | 100 to 1000 | 1000 to 5000 | COC(=O)c1cc(-c2csc3c(=O)cc(N4CCOCC4)oc23)ccc1Nc1ncc2cc(C(=O)N(C)C)n(C3CCCC3)c2n1 [Compound 4, Methyl 2-[1-cyclopentyl-2-(dimethylamino)carbonyl-1,5,7-triaza-1H-inden-6-ylamino]-5-(5-morpholino-7-oxo-4-oxa-1-thia-3-indenyl)benzoate] | – |
| 5000 to 50000 | 5000 to 50000 | < 100 | 100 to 1000 | < 100 | 100 to 1000 | 100 to 1000 | CN(C)C(=O)c1cc2cnc(Nc3ccc(-c4csc5c(=O)cc(N6CCOCC6)oc45)c(C(=O)O)c3)nc2n1C1CCCC1 [Compound 10, 5-[1-Cyclopentyl-2-(dimethylamino)carbonyl-1,5,7-triaza-1H-inden-6-ylamino]-2-(5-morpholino-7-oxo-4-oxa-1-thia-3-indenyl)benzoic acid] | – |
| < 100 | < 100 | 100 to 1000 | 1000 to 5000 | 1000 to 5000 | 100 to 1000 | 5000 to 50000 | CN(C)C(=O)c1cc2cnc(Nc3ccc(-c4csc5c(=S)cc(N6CCOCC6)oc45)cc3)nc2n1C1CCCC1 [Compound 11, {1-Cyclopentyl-6-[p-(5-morpholino-7-thioxo-4-oxa-1-thia-3-indenyl)phenylamino]-1,5,7-triaza-1H-inden-2-yl}(dimethylamino)formaldehyde] | – |

More lines, now with the values behind:

| Structure (SMILES) | IC50 (CDK4) [nM] | IC50 (CDK6) [nM] | IC50 (PI3K-alpha) [nM] | IC50 (BRD4 binding domain 2; [1]) [nM] | IC50 (BRD4 binding domain 1; [2]) [nM] | IC50 (PI3K-delta) [nM] | IC50 (PI3K-gamma) [nM] | further results |
| --- | --- | --- | --- | --- | --- | --- | --- | --- |
| CC(=O)c1c(C)c2cnc(Nc3ccc(N4CCNCC4)cn3)nc2n(C2CCCC2)c1=O [Palbociclib, reference compound] | – | – | – | – | – | – | – | IC50 (Mino): 47900 nM; IC50 (Granta): 10200 nM; IC50 (Jeko-1): 7430 nM; IC50 (Huh7 2H cell line): 9200 nM; times less potent than Compound 1, Huh7 2H (Huh7 2H cell line; ratio of IC50 values): about 18 times |
| O=c1cc(N2CCOCC2)oc2c(-c3ccc4c(c3)OCCO4)csc12 [Compound 0, reference compound] | – | – | – | – | – | – | – | IC50 (Hep3B): 6600 nM; IC50 (Huh7): 14300 nM; IC50 (HepG2): 5000 nM; IC50 (Huh7 2H cell line): 2970 to 5900 nM |
| COC(=O)c1cc(Nc2ncc3cc(C(=O)N(C)C)n(C4CCCC4)c3n2)ccc1-c1csc2c(=O)cc(N3CCOCC3)oc12 [Compound 7, Methyl 5-[1-cyclopentyl-2-(dimethylamino)carbonyl-1,5,7-triaza-1H-inden-6-ylamino]-2-(5-morpholino-7-oxo-4-oxa-1-thia-3-indenyl)benzoate] | < 100 | < 100 | 100 to 1000 | 100 to 1000 | 100 to 1000 | < 100 | 1000 to 5000 | – |
| CN(C)C(=S)c1cc2cnc(Nc3ccc(-c4csc5c(=S)cc(N6CCOCC6)oc45)cc3)nc2n1C1CCCC1 [Compound 12, 7-Cyclopentyl-N,N-dimethyl-2-((4-(5-morpholino-7-thioxo-7H-thieno[3,2-b]pyran-3-yl)phenyl)amino)-7H-pyrrolo[2,3-d]pyrimidine-6-carbothioamide] | 100 to 1000 | 100 to 1000 | 100 to 1000 | 5000 to 50000 | 5000 to 50000 | 100 to 1000 | 5000 to 50000 | – |
| CN(C)C(=O)c1cc2cnc(Nc3ccc(-c4csc5c(=O)cc(N6CCN(C(=O)OC(C)(C)C)CC6)oc45)cc3)nc2n1C1CCCC1 [Compound 18] | < 100 | < 100 | 5000 to 50000 | 1000 to 5000 | 100 to 1000 | 100 to 1000 | 1000 to 5000 | – |
| CN(C)C(=O)c1cc2cnc(Nc3ccc(-c4csc5c(=O)cc(N6CCOCC6)oc45)cn3)nc2n1C1CCCC1 [Compound 3, {1-Cyclopentyl-6-[5-(5-morpholino-7-oxo-4-oxa-1-thia-3-indenyl)-2-pyridylamino]-1,5,7-triaza-1H-inden-2-yl}(dimethylamino)formaldehyde] | < 100 | < 100 | 100 to 1000 | 100 to 1000 | – | < 100 | 100 to 1000 | IC50 BRD4-1 (BRD4 binding domain 1; 10-point curve, grouped by potency): * to ** |
| Cc1nc2c(F)cc(-c3nc(Nc4ccc(-c5csc6c(=O)cc(N7CCOCC7)oc56)cc4)ncc3F)cc2n1C(C)C [Compound 5, 3-{p-[5-Fluoro-4-(7-fluoro-3-isopropyl-2-methyl-1,3-diaza-3H-inden-5-yl)-2-pyrimidinylamino]phenyl}-5-morpholino-4-oxa-1-thia-7-indenone] | < 100 | < 100 | 5000 to 50000 | > 50000 | > 50000 | 1000 to 5000 | > 50000 | – |
| CN(C)C(=O)c1cc2cnc(Nc3ccc(-c4csc5c(=O)cc(N6CCNCC6)oc45)cc3)nc2n1C1CCCC1 [compound 2, (1-Cyclopentyl-6-{p-[7-oxo-5-(1-piperazinyl)-4-oxa-1-thia-3-indenyl]phenylamino}-1,5,7-triaza-1H-inden-2-yl)(dimethylamino)formaldehyde hydrochloride] | < 100 | < 100 | 5000 to 50000 | 100 to 1000 | 100 to 1000 | 5000 to 50000 | 5000 to 50000 | – |
| CC(=O)c1c(C)c2cnc(Nc3ccc(-c4csc5c(=O)cc(N6CCOCC6)oc45)cc3)nc2n(C2CCCC2)c1=O [Compound 6, 1-{8-cyclopentyl-5-methyl-2-[p-(5-morpholino-7-oxo-4-oxa-1-thia-3-indenyl)phenylamino]-7-oxo-1,3,8-triaza-8H-naphth-6-yl}-1-ethanone] | < 100 | < 100 | < 100 | 100 to 1000 | 100 to 1000 | < 100 | 1000 to 5000 | – |
| CN1CCN(c2ccc(Nc3ncc4cc(C#N)c(=O)n(C5CCCC5)c4n3)cc2)CC1 [ON123300, reference compound] | – | – | – | – | – | – | – | IC50 (CDK4/Cyclin D1): 3.87 nM; IC50 (CDK6/Cyclin D1): 9.82 nM; IC50 (BRD4 binding domain 2; read-out: IC50 BRD4 binding domain 2): > 50000 nM; IC50 (BRD4 binding domain 1; read-out: IC50 BRD4 binding domain 1): 45600 nM |
| O=c1cc(N2CCOCC2)oc2c(-c3ccccc3)cccc12 [LY294002, 2-(4-morpholinyl)-8-phenyl-4H-1-benzopyran-4-one] | – | – | – | – | – | – | – | IC50 (PI3 kinases): 1400 nM |
